The conditions of data set [1]: complex of copper(II) with the buffer; cited from earlier work. The source says:
Shifting in fragmentation sites could be related to structural alterations induced by the N-protection. It is commonly accepted that the N-capping ...

Data set [2] in a line: 50 mM Hepes buffer at pH 7.4, peptide alone. Conditions: 4 °C, up to 14 days.
Data set [3] in a line: 50 mM HEPES buffer at pH 7.4 with 25 µM copper(II) nitrate. Conditions: 4 °C, up to 14 days.
The nature of data set [4]: 50 mM HEPES buffer at pH 7.4 with 25 µM zinc(II) chloride. To be noted: 4 °C, up to 14 days.
Data set [5] is described as follows: Peptide hydrolysis in Hepes buffer alone or with Cu2+/Zn2+, followed by HPLC-ESI/MS. It is filed as physicochemical. Conditions: 50 mM HEPES pH 7.4, 4 °C, LC-MS relative % area. Here is the method: Herein, we analyzed the hydrolytic process of Aβ peptides in 50 mM Hepes buffer at 7.4 physiological pH over two weeks at two distinct temperatures, 4 °C and 37 °C, using mass spectrometry coupled with high-performance liquid chromatography (HPLC-MS) for precise analysis. Additionally, we explored the impact of copper(II) or zinc(II) ions, each added in a 1:1 molar ratio to the peptides, on the resulting hydrolytic fragmentation patterns. It is worth noting that metal binding only occurs at the N-terminal region of Aβ peptides, specifically interacting with histidine residues. The commonly accepted peptide sequence 1–16 (^1[…]^16, Aβ16) is widely used as a model for this interaction due to its inclusion of all three histidines (His6, His13, and His14) known for their key roles in coordinating metal ions. Therefore, the initial studies were performed on this short peptide.
General. All chemicals were of reagent grade and purchased from Sigma-Aldrich. Preparative HPLC was carried out with a Shimadzu LC-20AD Prominence instrument equipped with a diode array detector. Mass spectra and LCMS/MS data were performed with an LCQ ADV MAX ion-trap mass spectrometer equipped with an ESI ion source. The instrument was run in an automated LC-MS/MS mode and using a surveyor HPLC system (Thermo Finnigan, San Jose, CA, USA) equipped with a Phenomenex Jupiter 4u Proteo column (4 μm, 150 × 2.0 mm). For the analysis of peptide fragments, Bioworks 3.1 and Xcalibur 2.0.7 SP1 software were used (Thermo Finnigan, San Jose, CA, USA).
Peptide hydrolysis in the presence of metal ions. Solutions of Aβ16 and Aβ28 (500 µM) alone or with the addition of Cu(NO3)2 (1 eqv., 500 µM) or ZnCl2 (1 eqv., 500 µM) were prepared in 50 mM Hepes buffer at pH 7.4. The solutions were then incubated at 4 °C or 37 °C (only for Aβ16) in atmospheric air and every 7 days aliquots were taken, diluted to the 25 µM final concentration with Hepes buffer, and analyzed by HPLC-ESI/MS. The solution of R1τ, Ac-R1τ, αSyn15, and Ac-αSyn15 (25 µM) fragments were incubated in 50 mM Hepes buffer at 4 °C for 14 days; at the same time, solutions also containing copper(II) or zinc(II) in a 1:1 molar ratio respect to peptide were prepared. The elution was performed by using 0.1% HCOOH in distilled water (solvent A) and 0.1% HCOOH in acetonitrile (solvent B), with a flow rate of 0.2 mL/min. Elution started with 98% solvent A for 5 min, followed by a linear gradient from 98 to 55% A in 55 min. […] For the analysis of peptide fragments, Bioworks 3.1 and Xcalibur 2.0.7 SP1 software were used (Thermo Finnigan, San Jose, CA, USA).

The mark [6] stands for this setting: Aβ28 500 µM + 500 µM copper(II) nitrate, 14 days.
The mark [7] stands for this setting: Aβ28 500 µM + 500 µM copper(II) nitrate, 21 days.
Where [8] appears, read: Aβ28 500 µM + 500 µM zinc(II) chloride, 14 days.
[9] abbreviates: Aβ28 500 µM + 500 µM zinc(II) chloride, 21 days.

“Also recorded” adds a separate entry of the source. Bounds are passed on as bounds.

With `O=S(=O)(O)CCN1CCN(CCO)CC1` [Hepes], in data set [1], the “Copper(II) complex formation constant (log K)” value is 3.
On to Ac-^1MDVFMKGLSKAKEGV^15-NH2, for which the cleaved bond entry is reported as “K6-G7, 14 days; also recorded: K10-A11, 14 days; also recorded: L8-S9, 14 days” in data set [2]; “L8-S9, 14 days” in data set [3]; “L8-S9, 14 days” in data set [4].
For the molecule Ac-^256VKSKIGSTENLKHQPGGG^273-NH2, the cleaved bond result in data set [2] is listed as “K259-I260, 14 days; also recorded: G261-S262, 14 days; also recorded: I260-G261, 14 days; also recorded: E264-N265, 14 days; also recorded: S258-K259, 14 days; also recorded: Q269-P270, 14 days; also recorded: K267-H268, 14 days; also recorded: L266-K267, 14 days”; in data set [3], “G261-S262, 14 days; also recorded: N265-L266, 14 days; also recorded: E264-N265, 14 days”; in data set [4], “G261-S262, 14 days; also recorded: N265-L266, 14 days; also recorded: E264-N265, 14 days; also recorded: K267-H268, 14 days”.
As to “DAEFRHDSGYEVHHQKLV.F [hydrolytic fragment 1-18 of Aβ28]”, the “Remaining amount of Aβ28 and species detected by LC-MS (Table S2)” value (from here on “Remaining amount”) in data set [5] (setting [6]) is 4%; in data set [5] (setting [7]), 7%; in data set [5] (setting [8]) it was 7%; in data set [5] (setting [9]), 10%; in data set [5] (Aβ28 500 µM alone, 14 days), 5%.
For the molecule “DAEFRHDSGYEVHHQKLVF.F [hydrolytic fragment 1-19 of Aβ28]”, the “Remaining amount” value in data set [5] (setting [6]) turned out to be 1%; in data set [5] (setting [7]), 1%; in data set [5] (setting [8]) it was 7%; in data set [5] (setting [9]), 6%.
For the molecule “DAEFRHDSGYEVHHQKLVFFAE.D [hydrolytic fragment 1-22 of Aβ28]”, the “Remaining amount” value in data set [5] (setting [6]) is 3%; in data set [5] (setting [7]) it was 5%; in data set [5] (setting [8]), 9%; in data set [5] (setting [9]), 7%.
In the case of “E.FRHDSGYEVHHQ.K [hydrolytic fragment 4-15 of Aβ28]”, in data set [5] (Aβ28 500 µM alone, 14 days), the “Remaining amount” value came out at 2%.
Molecule H-MDVFMKGLSKAKEGV-NH2 gave an amount (%) of intact peptide after hydrolysis above 90%.
“K.LVFFAEDVGSNK [hydrolytic fragment 17-28 of Aβ28]”: the “Remaining amount” value in data set [5] (setting [6]) is given as 1%; in data set [5] (setting [7]), 1%; in data set [5] (setting [8]), 5%; in data set [5] (setting [9]), 4%; in data set [5] (Aβ28 500 µM alone, 14 days) it was 22%.
Take “Q.KLVFFAEDVGSNK [hydrolytic fragment 16-28 of Aβ28]”: the “Remaining amount” value in data set [5] (setting [8]) stood at 10%; in data set [5] (setting [9]) it was 13%; in data set [5] (Aβ28 500 µM alone, 14 days), 16%.
^1MDVFMKGLSKAKEGV^15-NH2: the cleaved bond entry is “K6-G7, 14 days; also recorded: F4-M5, 14 days; also recorded: L8-S9, 14 days” in data set [2]; “K12-E13, 14 days; also recorded: K6-G7, 14 days; also recorded: F4-M5, 14 days; also recorded: L8-S9, 14 days” in data set [3]; “K6-G7, 14 days; also recorded: F4-M5, 14 days; also recorded: L8-S9, 14 days” in data set [4].
Consider ^256VKSKIGSTENLKHQPGGG^273-NH2, for which the cleaved bond entry in data set [2] is “G261-S262, 14 days; also recorded: N265-L266, 14 days”; in data set [3] it was “N265-L266, 14 days; also recorded: S258-K259, 14 days; also recorded: Q269-P270, 14 days”; in data set [4], “K259-I260, 14 days; also recorded: I260-G261, 14 days; also recorded: E264-N265, 14 days; also recorded: K267-H268, 14 days”.

The record behind these values is paper PMC11767661 (Molecules, 2025).
